How the values were obtained:
[1] = in man; cited from earlier work
laboratory animals = settings: cited from earlier work
[2] = system: genetically epilepsy prone rats; experiment: Audiogenic seizure (AGS) test, anticonvulsant activity; assay type: in vivo, rat; settings: for ED50: Rattus norvegicus, 0.25 h, iv, rats, tested 15 minutes after injection, 95% confidence limits printed in parentheses on the next line, read-out: AGS ED50 (median effective anticonvulsant dose)
Procedure: (§1) With regard to the potential use of this family of compounds in the treatment of epilepsy, (+)-Carenadiol was evaluated in the audiogenic seizure (AGS-susceptible) rat model of eilepsy to assess its anticonvulsant activity, and the rat rotorod (ROT) paadigm was used to assess differential neurotoxicity (i.e., reflecting mainly sedation and/or incoordination), of this family of compounds.
(§2) For AGS tests, male and female, 150-225 gm, genetically epilepsy prone rats were used. For ROT tests, male and female, 150-225 gm. rats were used. CBD analogs (suspended in a vehicle of 10% polysorbate 80 and 90% distilled water) were injected intravenously and rats were tested 15 minutes later (a peak-effect time for both tests). In the AGS test, responses to sound were recorded as the presence or absence of seizure (i.e., generalized clonus or clonus and generalized flexion). In the ROT test, effects were measured as the ability or inability (i.e., neurotoxicity) of trained rats to remain on a revolving drum (rotorod) for 60 seconds.
(§3) Separate groups of 10-15 rats were used for each doses of drug tested and, typically, 3-6 doses of each analog were used for each AGS and ROT test. For appropriate dose-response data, median effective anticonvulsant (ED50) and neurotoxic (TD50) doses and regression line parameters were calculated by computer-assisted probit analysis. Subsequent calculations of 95% confidence limits (CL) and comparisons between slopes and median doses (i.e., ED50 and TD50 potency comparisons) were carried out using the method of Litchfield and Wilcoxon [J. Pharmacol Exp Ther 96:99-133(1949)].Protective indexes (PI =ROT-TD50/AGS-ED50) also were calculated.

[3] = as above; assay type: in vivo, rat; settings: rat, in vivo; ratio of ROT TD50 to AGS ED50, iv, rats; read-out: PI (protective index = ROT-TD50/AGS-ED50)
Procedure: as §1, §2, §3

[4] = Rat rotorod (ROT) test, differential neurotoxicity; assay type: in vivo; settings: iv, rats, tested 15 minutes after injection, 95% confidence limits printed in parentheses on the next line, read-out: ROT TD50 (median neurotoxic dose)
Procedure: as §1, §2, §3

| Structure (SMILES) | antidystonic activity [1] | antiepileptic efficacy [1] | cannabimimetic activity [1] | side effects [1] | activity in models that predict cannabimimetic activity (laboratory animals) | ED50 [2] | activity among the compounds synthesized and tested ([2]; comparison in words) | selectivity ratio at 0.25 h [3] | TD50 at 0.25 h [4] |
| --- | --- | --- | --- | --- | --- | --- | --- | --- | --- |
| C=C(C)[C@@H]1CCC(C)=C[C@H]1c1c(O)cc(CCCCC)cc1O [(-)-CBD, (-)-Cannabidiol] | possibly antidystonic activity | antiepileptic efficacy | no cannabimimetic activity | no recognized and undesired side effects | inactive | – | – | – | – |
| CCCCCc1cc(O)c(C2C=C(C)CC3C2C3(C)C)c(O)c1 (single isomer, unassigned; (+)) [(+)-5a] | – | – | – | – | – | 18.1 mg/kg | the most active | 5.5 | 99.8 mg/kg |
| NC(=O)N1c2ccccc2C=Cc2ccccc21 [Carbamazepine] | – | – | – | – | – | 12.8 mg/kg | – | 2.7 | 33.9 mg/kg |
| CCC1(c2ccccc2)C(=O)NC(=O)NC1=O [Phenobarbital] | – | – | – | – | – | 10.8 mg/kg | – | 2.7 | 28.9 mg/kg |
| O=C1NC(=O)C(c2ccccc2)(c2ccccc2)N1 [Phenytoin] | – | – | – | – | – | 14.7 mg/kg | – | 1.6 | 23.9 mg/kg |
| CCCCCCC(C)(C)c1cc(O)c(C2C=C(C)CC3C2C3(C)C)c(O)c1 (single isomer, unassigned; (+)) [(+)-5b] | – | – | – | – | – | 3.4 mg/kg | – | 1.1 | 3.7 mg/kg |

Reference: patent US4758597A, “Carenadiol and derivatives” (University Patents, Inc., priority 1987, dated 1988)
